These results are taken from patent US12565497B2 (Hoffmann-La Roche Inc., priority 2020, dated 2026).

For the experiment, the target named is Recombinant human Mat2a (Homo sapiens (Human), UniProt P31153). The experiment can be described thus: Determination of Mat2A activity (384 well absorbance-based assay, Biomol Green). The class given is biochemical. The note with it: 12.5 nM Mat2A, 100 μM ATP and Methionine, 2% DMSO, 120 minutes at RT, absorbance at 635 nm; read-out: MAT2A_LEC IC50 (uM) (Num). The procedure, abridged: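 Recombinant human Mat2A (12.5 nM) preincubated 15 min at RT with compound (10 μM to 508 pM) in 50 mM HEPES pH 7.5, 50 mM KCl, 50 mM MgCl2, 0.01% Tween 20, 10 mM DTT, 2% DMSO. Reaction started with ATP and methionine (100 μM each), run 120 min at RT, then stopped with Biomol Green; A635 read after 30 min.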

By IC50 is commonly meant the midpoint of a concentration-inhibition curve.

Sequence of Recombinant human Mat2a (P31153 whole entry): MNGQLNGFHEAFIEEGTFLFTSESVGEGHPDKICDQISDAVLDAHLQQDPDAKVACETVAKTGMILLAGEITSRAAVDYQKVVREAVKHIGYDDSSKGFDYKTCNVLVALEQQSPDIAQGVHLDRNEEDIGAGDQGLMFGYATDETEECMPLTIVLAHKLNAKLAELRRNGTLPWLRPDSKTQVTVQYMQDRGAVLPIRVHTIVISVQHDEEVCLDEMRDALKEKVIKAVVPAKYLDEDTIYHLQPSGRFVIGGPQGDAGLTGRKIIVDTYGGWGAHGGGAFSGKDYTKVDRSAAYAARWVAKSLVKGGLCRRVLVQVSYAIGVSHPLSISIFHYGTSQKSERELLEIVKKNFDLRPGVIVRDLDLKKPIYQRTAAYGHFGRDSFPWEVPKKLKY

For the compound `Cc1cc(-c2nccc3[nH]nc(OC(F)F)c23)ccc1S(=O)(=O)C1CC1` [Example 26, 4-(4-cyclopropylsulfonyl-3-methyl-phenyl)-3-(difluoromethoxy)-1H-pyrazolo[4,3-c]pyridine], the half-inhibitory concentration (IC50) is < 0.013 µM.

Regarding `Cc1cc(-c2c(S(=O)(=O)N(C)C)ccc3[nH]nc(C4CC4)c23)ccc1S(C)(=O)=O` [Example 114, 3-cyclopropyl-N,N-dimethyl-4-(3-methyl-4-methylsulfonyl-phenyl)-1H-indazole-5-sulfonamide], the IC50 was found to be 0.03 µM. Consider `Cc1cc(-c2c(C#N)ncc3[nH]nc(OC(F)F)c23)ccc1S(=O)(=O)C(F)F` [Example 105, 3-(difluoromethoxy)-4-(4-((difluoromethyl)sulfonyl)-3-methylphenyl)-1H-pyrazolo[3,4-c]pyridine-5-carbonitrile], for which the IC50 is < 0.013 µM. In the case of `CNS(=O)(=O)c1ccc2[nH]nc(C3CC3)c2c1-c1ccc(S(C)(=O)=O)c(C)c1` [Example 115, 3-cyclopropyl-N-methyl-4-(3-methyl-4-methylsulfonyl-phenyl)-1H-indazole-5-sulfonamide], the IC50 was found to be 0.03 µM. Turning to `CCOc1n[nH]c2ccnc(-c3ccc(S(C)(=O)=O)c(C)c3)c12` [Example 66, 3-ethoxy-4-(3-methyl-4-methylsulfonyl-phenyl)-1H-pyrazolo[4,3-c]pyridine], the IC50 was determined as 0.13 µM.

With `CNC(=O)c1ncc2[nH]nc(C3CC3)c2c1-c1ccc(S(=O)(=O)C2CC2)c(C)c1` [Example 89, 3-cyclopropyl-4-(4-cyclopropylsulfonyl-3-methyl-phenyl)-N-methyl-1H-pyrazolo[3,4-c]pyridine-5-carboxamide], the IC50 was determined as 0.035 µM. For the compound `Cc1cc(-c2nccc3[nH]nc(OC(F)F)c23)ccc1S(=O)(=O)C1(C)CC1` [Example 37, 3-(difluoromethoxy)-4-[3-methyl-4-(1-methylcyclopropyl)sulfonyl-phenyl]-1H-pyrazolo[4,3-c]pyridine], the IC50 stood at 0.1 µM. The result for `Cc1cc(-c2nccc3[nH]nc(OC(F)F)c23)ccc1S(=O)(=O)C(C)C` [Example 32] reads < 0.013 µM; that for `Cc1cc(-c2nccc3[nH]nc(-c4ccsc4)c23)ccc1S(C)(=O)=O` [Example 65, 4-(3-methyl-4-(methylsulfonyl)phenyl)-3-(thiophen-3-yl)-1H-pyrazolo[4,3-c]pyridine], 0.52 µM; that for `Cc1cc(-c2nccc3[nH]nc(OC(F)F)c23)ccc1S(=O)(=O)C1COC1` [Example 35, 3-(difluoromethoxy)-4-[3-methyl-4-(oxetan-3-ylsulfonyl)phenyl]-1H-pyrazolo[4,3-c]pyridine], 0.12 µM. With `Cc1cc(-c2c(S(C)(=O)=O)ccc3[nH]nc(C4CC4)c23)ccc1S(C)(=O)=O` [Example 77, 3-cyclopropyl-4-(3-methyl-4-(methylsulfonyl)phenyl)-5-(methylsulfonyl)-1H-indazole], the IC50 was 0.013 µM. The result for `Cc1cc(-c2nccc3[nH]nc(OC(F)F)c23)ccc1S(=O)(=O)C(F)F` [Example 25, 3-(difluoromethoxy)-4-[4-(difluoromethylsulfonyl)-3-methyl-phenyl]-1H-pyrazolo[4,3-c]pyridine] reads 0.013 µM. Consider `COc1cc2[nH]nc(C3CC3)c2c(-c2ccc(S(C)(=O)=O)c(C)c2)n1` [Example 70, 3-cyclopropyl-6-methoxy-4-(3-methyl-4-methylsulfonylphenyl)-1H-pyrazolo[4,3-c]pyridine], for which the IC50 was 0.061 µM. On to `Cc1cc(-c2c(C(F)(F)F)ncc3[nH]nc(C4CC4)c23)ccc1S(C)(=O)=O` [Example 79, 3-cyclopropyl-4-(3-methyl-4-methylsulfonylphenyl)-5-(trifluoromethyl)-1H-pyrazolo[3,4-c]pyridine], for which the IC50 was < 0.013 µM. On to `Cc1cc(-n2c(=O)c(C3CC3)cc3[nH]nc(C4CC4)c32)ccc1S(C)(=O)=O` [Example 81, 3,6-dicyclopropyl-4-(3-methyl-4-methylsulfonyl-phenyl)-1H-pyrazolo[4,3-b]pyridin-5-one], for which the IC50 turned out to be 0.079 µM. The result for `Cc1cc(-c2c(S(C)(=O)=O)ccc3[nH]nc(OC(F)(F)F)c23)ccc1S(C)(=O)=O` [Example 93, 4-(3-methyl-4-(methylsulfonyl)phenyl)-5-(methylsulfonyl)-3-(trifluoromethoxy)-1H-indazole] reads < 0.013 µM. `Cc1cc(-n2c(=O)ccc3[nH]nc(OC(F)(F)F)c32)ccc1S(C)(=O)=O` [Example 91, 4-(3-methyl-4-methylsulfonyl-phenyl)-3-(trifluoromethoxy)-1H-pyrazolo[4,3-b]pyridin-5-one]: the concentration for half-maximal inhibition (IC50) was < 0.013 µM. In the case of `COc1n[nH]c2ccc(C#N)c(-c3ccc(S(C)(=O)=O)c(C)c3)c12` [Example 68, 3-methoxy-4-(3-methyl-4-(methylsulfonyl)phenyl)-1H-indazole-5-carbonitrile], the IC50 is < 0.013 µM.

For `Cc1cc(-c2c(C#N)ncc3[nH]nc(C4CC4)c23)ccc1S(=O)(=O)C1CC1` [Example 43, 3-cyclopropvl-4-(4-cyclopropylsulfonyl-3-methyl-phenyl)-1H-pyrazolo[3,4-c]pyridine-5-carbonitrile], the IC50 was < 0.013 µM. With `Cc1cc(-c2c(C#N)ncc3[nH]nc(C4CC4)c23)ccc1S(=O)(=O)C(F)F` [Example 50, 3-cyclopropyl-4-[4-(difluoromethylsulfonyl)-3-methyl-phenyl]-1H-pyrazolo[3,4-c]pyridine-5-carbonitrile], the IC50 was < 0.013 µM.

`Cc1cc(-c2ncc(NCCCCN)c3[nH]nc(C4CC4)c23)ccc1S(C)(=O)=O` [Example 102, N′-[3-cyclopropyl-4-(3-methyl-4-methylsulfonyl-phenyl)-1H-pyrazolo[4,3-c]pyridin-7-yl]butane-1,4-diamine]: the IC50 turned out to be 0.06 µM.

As to `COCc1ncc2[nH]nc(C3CC3)c2c1-c1ccc(S(C)(=O)=O)c(C)c1` [Example 41, 3-cyclopropyl-5-(methoxymethyl)-4-(3-methyl-4-(methylsulfonyl)phenyl)-1H-pyrazolo[3,4-c]pyridine], the IC50 came to 0.14 µM. `CSc1ccc2[nH]nc(C3CC3)c2c1-c1ccc(S(C)(=O)=O)c(C)c1` [Example 75, 3-cyclopropyl-4-(3-methyl-4-(methylsulfonyl)phenyl)-5-(methylthio)-1H-indazole]: the IC50 stood at 0.013 µM. The value for `Cc1cc(-c2c(S(C)(=O)=O)ccc3[nH]nc(OC(F)F)c23)ccc1S(=O)(=O)C1CC1` [Example 55, 4-(4-cyclopropylsulfonyl-3-methyl-phenyl)-3-(difluoromethoxy)-5-methylsulfonyl-1H-indazole] was < 0.013 µM.
